# Assay results reported in EP0871764B1, “SCREENING METHOD” (Novartis AG, priority 1995, dated 1997).
# Molecular target: T1, RAC-PK PH domain (Homo sapiens, UniProt P31749)
# T1 construct: pGEX-PH131 contains an in-frame fusion of amino acids 1-131 of human RAC-PKα with GST; GST (N, cleaved yes); made in house; host or cells: E. coli (JM109)
# Test: Quenching of the intrinsic Trp fluorescence of the PH domain by phospholipids and inositol phosphates
# Assay type: binding
# Conditions: calculated from reduction of 345nm fluorescence (excited at 290nm); 10mM Hepes/NaOH, pH 7.0, 10mM MgCl2, 25°C; read-out: Dissociation Constant
# Method: Purified PH domain obtained according to Example 1 is incubated at a concentration of 1.4µM in 10mM Hepes/NaOH, pH 7.0, 10mM MgCl2, at 25°C.
# Under the same conditions as Example 3, the RAC-PK PH domain is incubated in the presence of varying concentrations of phospholipids and inositol phosphates and fluorescence is measured. […]
# T1 sequence (P31749 1-131): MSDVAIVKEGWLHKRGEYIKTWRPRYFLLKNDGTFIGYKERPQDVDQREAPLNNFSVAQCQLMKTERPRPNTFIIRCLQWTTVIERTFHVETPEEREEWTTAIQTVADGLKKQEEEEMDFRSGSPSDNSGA
row,Compound,Kd
1,"O=P(O)(O)OC1C(O)C(O)C(OP(=O)(O)O)C(OP(=O)(O)O)C1O (centres unmarked) [Ins (1,4,5) trisphosphate]",1200 nM
2,O=P(O)(O)OC1C(O)C(O)C(O)C(O)C1O (centres unmarked) [Ins (2) monophosphate],8400 nM
3,"Ptd-Ins (4,5)bisphosphate",400 nM
4,"O=P(O)(O)OC1C(O)C(O)C(OP(=O)(O)O)C(O)C1O (centres unmarked) [Ins (1,4) bisphosphate]",900 nM
5,O=P(O)(O)OC1C(O)C(O)C(O)C(O)C1O (centres unmarked) [Ins (1) monophosphate],7000 nM
